Measured values published in PMC7297122 (2020).

Columns and labels:
[1] = test system: NAD+ riboswitch domain 1, wild type (unmodified domain 1 RNA) (RNA, riboswitch) GGCUUCAACAACCCCGUAGGUUGGGCCGCAAGGCAGCGAAUCUACUGGAGCC; assay: ITC; settings: 100 mM KCl, 10 mM MgCl2; 40 mM HEPES-K pH 7.0 (pH 7.2 in Figure 5 legend), 298 K
[2] = test system: domain 1 crystallization RNA, 5-bromocytidine form (RNA, riboswitch, 5-bromocytidine at 3 or at 42 and 45 (which form per ligand: Table S1, not seen)) GGCUUCAACAACCCCGUAGGUUGGGCCGAAAGGCAGCGAAUCUACUGGAGCC; assay: X-ray crystallography; settings: Mg2+
[3] = test system: C6 2'-deoxy atomic mutant domain 1 (RNA, riboswitch, 2'-deoxy at 6) GGCUUCAACAACCCCGUAGGUUGGGCCGCAAGGCAGCGAAUCUACUGGAGCC; assay: ITC; settings: 100 mM KCl, 10 mM MgCl2; 40 mM HEPES-K pH 7.0, 298 K; 1 mM ligand titrated into 100 µM RNA
[4] = test system: domain 1 crystallization RNA, unmodified (RNA, riboswitch) GGCUUCAACAACCCCGUAGGUUGGGCCGAAAGGCAGCGAAUCUACUGGAGCC; assay: X-ray crystallography; settings: Mg2+
[5] = test system: G47 2'-deoxy atomic mutant domain 1 (RNA, riboswitch, 2'-deoxy at 47) GGCUUCAACAACCCCGUAGGUUGGGCCGCAAGGCAGCGAAUCUACUGGAGCC; assay: ITC; settings: 100 mM KCl, 10 mM MgCl2; 40 mM HEPES-K pH 7.0, 298 K; 1 mM ligand titrated into 100 µM RNA
[6] = test system: C6U:G47A mutant domain 1 (RNA, riboswitch) GGCUUUAACAACCCCGUAGGUUGGGCCGCAAGGCAGCGAAUCUACUAGAGCC; assay: ITC; settings: 100 mM KCl, 10 mM MgCl2; 40 mM HEPES-K pH 7.0, 298 K; 1 mM ligand titrated into 100 µM RNA

| Structure (SMILES) | Kd [1] [µM] | binding [2] | binding [4] | further results |
| --- | --- | --- | --- | --- |
| CNc1ncnc2c1ncn2[C@@H]1O[C@H](COP(=O)(O)OP(=O)(O)OP(=O)(O)O)[C@@H](O)[C@H]1O | 50 ± 19 | yes | – | – |
| NC(=O)C1=CN([C@@H]2O[C@H](COP(=O)(O)OP(=O)(O)OC[C@H]3O[C@@H](n4cnc5c(N)ncnc54)[C@H](O)[C@@H]3O)[C@@H](O)[C@H]2O)C=CC1 | – | – | – | binding ([2]; only ADP moiety visible, also Mn2+ form 6TFH): yes |
| Nc1ncnc2c1ncn2[C@@H]1O[C@H](COP(=O)(O)O)[C@@H](O)[C@H]1O | – | yes | – | – |
| Nc1ncnc2c1ncn2[C@@H]1O[C@H](COP(=O)(O)OP(=O)(O)O)[C@@H](O)[C@H]1O | 89 ± 15 | – | yes | binding [3]: weak; binding [5]: weak; binding [6]: no |
| Nc1ncnc2c1ncn2[C@@H]1O[C@H](COP(=O)(O)OP(=O)(O)OP(=O)(O)O)C[C@H]1O | – | – | yes | – |
| Nc1ncnc2c1ncn2[C@@H]1O[C@H](COP(=O)(O)OS(=O)(=O)O)[C@@H](OP(=O)(O)O)[C@H]1O | – | – | yes | – |

Further lines, with some results ahead:

| Kd [1] [µM] | binding [2] | binding [4] | Structure (SMILES) | further results |
| --- | --- | --- | --- | --- |
| > 150 | – | – | NC(=O)c1ccc[n+]([C@@H]2O[C@H](COP(=O)(O)OP(=O)(O)OC[C@H]3O[C@@H](n4cnc5c(N)ncnc54)[C@H](O)[C@@H]3O)[C@@H](O)[C@H]2O)c1 | binding ([2]; ADP moiety and nicotinamide ribose 5' carbon visible): yes |
| – | yes | – | Nc1ncnc2c1ncn2[C@@H]1O[C@H](COP(=O)(O)OP(=O)(O)OP(=O)(O)O)[C@@H](O)[C@H]1O | – |
